Measured values: patent US8758816B2, “Compositions comprising azelastine and methods of use thereof” (priority 2004, dated 2014)
Structures can show the parent of a compound that is named as a salt.

Test system: patients with seasonal allergic rhinitis (SAR)
Test: MP 428 study: individual symptom severity scores (runny nose, itchy nose, sneezing, congestion; 0-3 scale)
Type: in vivo, human
Settings: Intent-to-Treat Population
Procedure: A two-week, randomized, double-blind study, which evaluated the effects of the co-administration of ASTELIN® (azelastine hydrochloride (HCl)) and FLONASE® (fluticasone propionate) compared to either product alone in patients with seasonal allergic rhinitis (SAR) was conducted during the 2006 Texas mountain cedar season. After a 5-day placebo lead-in period, 151 patients with moderate-to-severe allergic rhinitis symptoms were randomized to either: (1) (49 total patients) ASTELIN® (azelastine hydrochloride (HCl)) plus placebo saline nasal spray 2 sprays per nostril, 15 minutes apart, twice daily (AM & PM); (2) (50 total patients) FLONASE® (fluticasone propionate) plus placebo saline nasal spray, 2 sprays per nostril, 15 minutes apart, once daily (AM) and two sessions of placebo saline nasal spray, 2 sprays per nostril, 15 minutes apart (PM); or (3) (52 total patients) the co-administration of ASTELIN® (azelastine hydrochloride (HCl)) 2 sprays per nostril plus FLONASE® (fluticasone propionate) 2 sprays per nostril (AM), 15 minutes apart, and ASTELIN® (azelastine hydrochloride (HCl)) 2 sprays per nostril plus placebo saline nasal spray, 15 minutes apart, (PM) for a 2-week double-blind treatment period.
The primary efficacy variable was the change from baseline in the Total Nasal Symptom Score (TNSS), which comprised sneezing, itchy nose, runny nose, and nasal congestion (individual symptoms scores were assigned a value between 0 and 3, where 0=no symptoms and 3=severe symptoms). This study was not statistically designed to assess the differences between ASTELIN® and FLONASE®.
The results of the clinical trial are summarized and presented in Appendix A hereinbelow and in FIGS. 1-6. […] FIGS. 2-5 show the mean improvement in severity score (0-3 scale) from baseline for the symptoms of runny nose, itchy nose, sneezing and congestion, respectively.

CN1CCCC(n2nc(Cc3ccc(Cl)cc3)c3ccccc3c2=O)CC1 (racemic) [Azelastine, (±)-1-(2H)-phthalazinone, 4-[(4-chlorophenyl)methyl]-2-(hexahydro-1-methyl-1H-azepin-4-yl)-, mono-hydrochloride]
Percent Change from Baseline in AM and PM Combined Nasal Symptom Score: Congestion, LS Mean (Day 5): −18.24%
Percent Change from Baseline in AM and PM Combined Nasal Symptom Score: Congestion, Mean (Day 5): −18.92%
Percent Change from Baseline in AM and PM Combined Nasal Symptom Score: Congestion, Median (Day 5): −16.67%
Percent Change from Baseline in AM and PM Combined Nasal Symptom Score: Itchy Nose, LS Mean (Day 5): −24.75%
Percent Change from Baseline in AM and PM Combined Nasal Symptom Score: Itchy Nose, Mean (Day 5): −24.24%
Percent Change from Baseline in AM and PM Combined Nasal Symptom Score: Itchy Nose, Median (Day 5): −15.49%
Percent Change from Baseline in AM and PM Combined Nasal Symptom Score: Runny Nose, LS Mean (Day 5): −18.46%
Percent Change from Baseline in AM and PM Combined Nasal Symptom Score: Runny Nose, Mean (Day 5): −18.42%
Percent Change from Baseline in AM and PM Combined Nasal Symptom Score: Runny Nose, Median (Day 5): −11.76%
Percent Change from Baseline in AM and PM Combined Nasal Symptom Score: Sneezing, LS Mean (Day 5): −33.21%
Percent Change from Baseline in AM and PM Combined Nasal Symptom Score: Sneezing, Mean (Day 5): −32.23%
Percent Change from Baseline in AM and PM Combined Nasal Symptom Score: Sneezing, Median (Day 5): −25.23%
Change from Baseline in AM and PM Combined Nasal Symptom Score: Congestion, LS Mean (Day 6): −1.04
Change from Baseline in AM and PM Combined Nasal Symptom Score: Congestion, Mean (Day 6): −1.09
Change from Baseline in AM and PM Combined Nasal Symptom Score: Congestion, Median (Day 6): −0.92
Change from Baseline in AM and PM Combined Nasal Symptom Score: Itchy Nose, LS Mean (Day 6): −1.14
Change from Baseline in AM and PM Combined Nasal Symptom Score: Itchy Nose, Mean (Day 6): −1.14
Change from Baseline in AM and PM Combined Nasal Symptom Score: Itchy Nose, Median (Day 6): −0.73
Change from Baseline in AM and PM Combined Nasal Symptom Score: Runny Nose, LS Mean (Day 6): −0.94
Change from Baseline in AM and PM Combined Nasal Symptom Score: Runny Nose, Mean (Day 6): −0.95
Change from Baseline in AM and PM Combined Nasal Symptom Score: Runny Nose, Median (Day 6): −1.00
Change from Baseline in AM and PM Combined Nasal Symptom Score: Sneezing, LS Mean (Day 6): −1.27
Change from Baseline in AM and PM Combined Nasal Symptom Score: Sneezing, Mean (Day 6): −1.26
Change from Baseline in AM and PM Combined Nasal Symptom Score: Sneezing, Median (Day 6): −1.30
Percent Change from Baseline in AM and PM Combined Nasal Symptom Score: Congestion, LS Mean (Day 6): −18.26%
Percent Change from Baseline in AM and PM Combined Nasal Symptom Score: Congestion, Mean (Day 6): −18.97%
Percent Change from Baseline in AM and PM Combined Nasal Symptom Score: Congestion, Median (Day 6): −18.37%
Percent Change from Baseline in AM and PM Combined Nasal Symptom Score: Itchy Nose, LS Mean (Day 6): −24.98%
Percent Change from Baseline in AM and PM Combined Nasal Symptom Score: Itchy Nose, Mean (Day 6): −25.00%
Percent Change from Baseline in AM and PM Combined Nasal Symptom Score: Itchy Nose, Median (Day 6): −15.49%
Percent Change from Baseline in AM and PM Combined Nasal Symptom Score: Runny Nose, LS Mean (Day 6): −18.89%
Percent Change from Baseline in AM and PM Combined Nasal Symptom Score: Runny Nose, Mean (Day 6): −18.89%
Percent Change from Baseline in AM and PM Combined Nasal Symptom Score: Runny Nose, Median (Day 6): −21.74%
Percent Change from Baseline in AM and PM Combined Nasal Symptom Score: Sneezing, LS Mean (Day 6): −32.36%
Percent Change from Baseline in AM and PM Combined Nasal Symptom Score: Sneezing, Mean (Day 6): −31.52%
Percent Change from Baseline in AM and PM Combined Nasal Symptom Score: Sneezing, Median (Day 6): −28.00%
Change from Baseline in AM and PM Combined Nasal Symptom Score: Congestion, LS Mean (Day 7): −1.17
Change from Baseline in AM and PM Combined Nasal Symptom Score: Congestion, Mean (Day 7): −1.23
Change from Baseline in AM and PM Combined Nasal Symptom Score: Congestion, Median (Day 7): −1.00
Change from Baseline in AM and PM Combined Nasal Symptom Score: Itchy Nose, LS Mean (Day 7): −1.18
Change from Baseline in AM and PM Combined Nasal Symptom Score: Itchy Nose, Mean (Day 7): −1.17
Change from Baseline in AM and PM Combined Nasal Symptom Score: Itchy Nose, Median (Day 7): −0.90
Change from Baseline in AM and PM Combined Nasal Symptom Score: Runny Nose, LS Mean (Day 7): −0.93
Change from Baseline in AM and PM Combined Nasal Symptom Score: Runny Nose, Mean (Day 7): −0.95
Change from Baseline in AM and PM Combined Nasal Symptom Score: Runny Nose, Median (Day 7): −1.07
Change from Baseline in AM and PM Combined Nasal Symptom Score: Sneezing, LS Mean (Day 7): −1.76
Change from Baseline in AM and PM Combined Nasal Symptom Score: Sneezing, Mean (Day 7): −1.75
Change from Baseline in AM and PM Combined Nasal Symptom Score: Sneezing, Median (Day 7): −1.55
Percent Change from Baseline in AM and PM Combined Nasal Symptom Score: Congestion, LS Mean (Day 7): −21.14%
Percent Change from Baseline in AM and PM Combined Nasal Symptom Score: Congestion, Mean (Day 7): −22.02%
Percent Change from Baseline in AM and PM Combined Nasal Symptom Score: Congestion, Median (Day 7): −18.37%
Percent Change from Baseline in AM and PM Combined Nasal Symptom Score: Itchy Nose, LS Mean (Day 7): −26.35%
Percent Change from Baseline in AM and PM Combined Nasal Symptom Score: Itchy Nose, Mean (Day 7): −25.83%
Percent Change from Baseline in AM and PM Combined Nasal Symptom Score: Itchy Nose, Median (Day 7): −21.57%
Percent Change from Baseline in AM and PM Combined Nasal Symptom Score: Runny Nose, LS Mean (Day 7): −18.66%
Percent Change from Baseline in AM and PM Combined Nasal Symptom Score: Runny Nose, Mean (Day 7): −18.92%
Percent Change from Baseline in AM and PM Combined Nasal Symptom Score: Runny Nose, Median (Day 7): −25.00%
Percent Change from Baseline in AM and PM Combined Nasal Symptom Score: Sneezing, LS Mean (Day 7): −40.66%
Percent Change from Baseline in AM and PM Combined Nasal Symptom Score: Sneezing, Mean (Day 7): −39.73%
Percent Change from Baseline in AM and PM Combined Nasal Symptom Score: Sneezing, Median (Day 7): −38.78%
Change from Baseline in AM and PM Combined Nasal Symptom Score: Congestion, LS Mean (Day 8): −1.24
Change from Baseline in AM and PM Combined Nasal Symptom Score: Congestion, Mean (Day 8): −1.27
Change from Baseline in AM and PM Combined Nasal Symptom Score: Congestion, Median (Day 8): −1.00
Change from Baseline in AM and PM Combined Nasal Symptom Score: Itchy Nose, LS Mean (Day 8): −1.15
Change from Baseline in AM and PM Combined Nasal Symptom Score: Itchy Nose, Mean (Day 8): −1.12
Change from Baseline in AM and PM Combined Nasal Symptom Score: Itchy Nose, Median (Day 8): −0.83
Change from Baseline in AM and PM Combined Nasal Symptom Score: Runny Nose, LS Mean (Day 8): −1.23
Change from Baseline in AM and PM Combined Nasal Symptom Score: Runny Nose, Mean (Day 8): −1.25
Change from Baseline in AM and PM Combined Nasal Symptom Score: Runny Nose, Median (Day 8): −1.00
Change from Baseline in AM and PM Combined Nasal Symptom Score: Sneezing, LS Mean (Day 8): −1.74
Change from Baseline in AM and PM Combined Nasal Symptom Score: Sneezing, Mean (Day 8): −1.73
Change from Baseline in AM and PM Combined Nasal Symptom Score: Sneezing, Median (Day 8): −1.55
Percent Change from Baseline in AM and PM Combined Nasal Symptom Score: Congestion, LS Mean (Day 8): −22.22%
Percent Change from Baseline in AM and PM Combined Nasal Symptom Score: Congestion, Mean (Day 8): −22.68%
Percent Change from Baseline in AM and PM Combined Nasal Symptom Score: Congestion, Median (Day 8): −18.64%
Percent Change from Baseline in AM and PM Combined Nasal Symptom Score: Itchy Nose, LS Mean (Day 8): −25.37%
Percent Change from Baseline in AM and PM Combined Nasal Symptom Score: Itchy Nose, Mean (Day 8): −24.80%
Percent Change from Baseline in AM and PM Combined Nasal Symptom Score: Itchy Nose, Median (Day 8): −18.92%
Percent Change from Baseline in AM and PM Combined Nasal Symptom Score: Runny Nose, LS Mean (Day 8): −24.85%
Percent Change from Baseline in AM and PM Combined Nasal Symptom Score: Runny Nose, Mean (Day 8): −24.97%
Percent Change from Baseline in AM and PM Combined Nasal Symptom Score: Runny Nose, Median (Day 8): −25.00%
Percent Change from Baseline in AM and PM Combined Nasal Symptom Score: Sneezing, LS Mean (Day 8): −38.54%
Percent Change from Baseline in AM and PM Combined Nasal Symptom Score: Sneezing, Mean (Day 8): −37.78%
Percent Change from Baseline in AM and PM Combined Nasal Symptom Score: Sneezing, Median (Day 8): −33.33%
